{"source": "patent US10752640B2", "about": "“Compounds active towards bromodomains” (NUEVOLUTION A/S, priority 2014, dated 2020)", "data": [{"target": "BRD4 protein (Homo sapiens, UniProt O60885)", "experiment": "FRET assay, half maximal inhibitory concentration (IC50)", "assay_type": "binding", "conditions": "BRD4 protein 50 nM, Biotin-H4KAc4 peptide 12.5 nM; List of Classification", "protocol": "The compounds were biologically evaluated by determining the half maximal inhibitory concentration (IC50) by FRET assay. The IC50 is a measure of the effectiveness of a substance in inhibiting a specific biological or biochemical function.\nFor IC50 determinations, dose-response curves were generated, using a top concentration of 50 μM compound in 12.5% DMSO, followed by 10-fold dilutions in 12.5% DMSO. The composition of the reaction buffer was 50 mM HEPES, pH 7.5; 100 mM NaCl, 0.05% CHAPS.\nThe reaction was run in a final volume of 25 μl. The BRD4 protein (16.5 μl) was added to wells of 384w white Optiplates (Perkin Elmer) (50 nM final concentration) and 1 μl of compound dilution of DMSO control. Incubation time was 30 minutes at room temperature. In the next step, 2.5 μl Biotin-H4KAc4 peptide (Millipore 13-379) was added to the wells (final concentration was 12.5 nM), and the plates were incubated for 30 minutes at room temperature. Detection was performed by addition of 5 μl of a mix of mAb GST-XL665 (Cisbio 61GSTXLB) (10 nM final concentration) and Streptavidin Cryptate (Cisbio 610SAKLB) (2.4 nM final conc.) in reaction buffer with 0.4M KF and 0.05% BSA). The plates were incubated for one hour prior to reading on an Envision reader (Perkin Elmer)\nData was analyzed using GraphPad Prism, and IC50 data was obtained using non-linear regression curve fit using log(inhibitor) vs response (variable slope). All compounds were considered active although classified (according to the half maximal inhibitory concentration (IC50) by FRET assay) as follows: […]", "units": {"IC50": "nM"}, "values": [{"smiles": "Cc1cc(O)nc2ccc(NC(=O)c3nc(C#N)ccc3N3CCCC3)cc12", "note": "[Compound-35, 6-Cyano-N-(2-hydroxy-4-methylquinolin-6-yl)-3-(pyrrolidin-1-yl)picolinamide]", "IC50": "500 to 1000"}, {"smiles": "Cc1cc(O)nc2ccc(NC(=O)c3nc(CN)ccc3N3CCCC3)cc12", "note": "[Compound-36, 6-(aminomethyl)-N-(2-hydroxy-4-methylqunolin-6-yl)-3-(pyrrolidin-1-yl)picolinamide]", "IC50": "1000 to 10000"}, {"smiles": "Cc1cc(O)nc2ccc(NC(=O)c3nc(CN(C)C)ccc3N3CCCC3)cc12", "note": "[Compound-37]", "IC50": "1000 to 10000"}, {"smiles": "CC(=O)c1ccc(N2CCCC2)c(C(=O)Nc2ccc3nc(O)cc(C)c3c2)n1", "note": "[Compound-38, 6-acetyl-N-(2-hydroxy-4-methylquinolin-6-yl)-3(pyrrolidin-1-yl)picolinamide]", "IC50": "< 200"}, {"smiles": "Cc1cc(O)nc2ccc(NC(=O)c3nc(C(C)O)ccc3N3CCCC3)cc12", "note": "(stereo not drawn) [Compound-39]", "IC50": "500 to 1000"}, {"smiles": "Cc1cc(O)nc2ccc(NC(=O)c3nc(C(N)=O)ccc3N3CCCC3)cc12", "note": "[Compound-40, N2-(2-hydroxy-4-methylquinolin-6-yl)-3-(pyrrolidin-1-yl)pyridine-2,6-dicarboxamide]", "IC50": "200 to 500"}, {"smiles": "Cc1cc(O)nc2ccc(NC(=O)c3cc(C#N)ncc3N3CCCC3)cc12", "note": "[Compound-41, 2-Cyano-N-(2-hydroxy-4-methylquinolin-6-yl)-5-(pyrrolidin-1-yl) isonicotinamide]", "IC50": "< 200"}, {"smiles": "CC(=O)c1cc(C(=O)Nc2ccc3nc(O)cc(C)c3c2)c(N2CCCC2)cn1", "note": "[Compound-42, 2-acetyl-N-(2-hydroxy-4-methylquinolin-6-yl)-5 (pyrrolidin-1-yl)isonicotinamide]", "IC50": "< 200"}, {"smiles": "Cc1cc(O)nc2ccc(NC(=O)c3cc(C(C)O)ccc3N3CCCC3)cc12", "note": "(stereo not drawn) [Compound-46, N-(2-hydroxy-4-methylquinolin-6-yl)-5-(1-hydroxyethyl)-2-(pyrrolidin-1-yl) benzamide]", "IC50": "< 200"}, {"smiles": "COC(C)c1ccc(N2CCCC2)c(C(=O)Nc2ccc3nc(O)cc(C)c3c2)c1", "note": "(stereo not drawn) [Compound-47, N-(2-hydroxy-4-methylquinolin-6-yl)-5-(1-methoxyethyl)-2-(pyrrolidin-1-yl) benzamide]", "IC50": "< 200"}, {"smiles": "COCc1ccc(N2CCCC2CN(C)C)c(C(=O)Nc2ccc3nc(O)cc(C)c3c2)c1", "note": "(stereo not drawn) [Compound-48, 2-(2-((dimethylamino)methyl)pyrrolidin-1-yl)-N-(2-hydroxy-4-methylquinolin-6-yl)-5-(methoxymethyl)benzamide]", "IC50": "200 to 500"}, {"smiles": "Cc1cc(O)nc2ccc(NC(=O)c3cc(COC(C)C)ccc3N3CCCC3)cc12", "note": "[Compound-50, N-(2-hydroxy-4-methylquinolin-6-yl)-5-(isopropoxymethyl)-2-(pyrrolidin-1-yl) benzamide]", "IC50": "< 200"}, {"smiles": "Cc1cc(O)nc2ccc(NC(=O)c3cc(OC(F)(F)F)ccc3N3CCCC3CN(C)C)cc12", "note": "(stereo not drawn) [Compound-51, 2-(2-((dimethylamino)methyl)pyrrolidin-1-yl)-N-(2-hydroxy-4-methylquinolin-6-yl)-5-(trifluoromethoxy) benzamide]", "IC50": "< 200"}, {"smiles": "Cc1cc(O)nc2ccc(NC(=O)c3cc(N)ccc3N3CCOCC3)cc12", "note": "[Compound-54, 5-amino-N-(2-hydroxy-4-methyl-6-quinolyl)-2-morpholino-benzamide]", "IC50": "500 to 1000"}, {"smiles": "Cc1cc(O)nc2ccc(NC(=O)c3cc(NCC(N)=O)ccc3N3CCOCC3)cc12", "note": "[Compound-55, 5-[(2-amino-2-oxo-ethyl)amino]-N-(2-hydroxy-4-methyl-6-quinolyl)-2-morpholino-benzamide]", "IC50": "200 to 500"}, {"smiles": "Cc1cc(O)nc2ccc(NC(=O)c3cc(S(=O)(=O)N4CCOCC4)ccc3N3CCOCC3)cc12", "note": "[Compound-68, N-(2-hydroxy-4-methyl-6-quinolyl)-2-morpholino-5-morpholinosulfonyl-benzamide]", "IC50": "< 200"}, {"smiles": "COc1ccccc1C(=O)Nc1ccc2nc(O)cc(C)c2c1", "note": "[Compound-69, N-(2-hydroxy-4-methyl-6-quinolyl)-2-methoxy-benzamide]", "IC50": "> 10000"}, {"smiles": "Cc1cc(O)nc2ccc(NC(=O)c3cc(S(N)(=O)=O)ccc3N3CCOCC3)cc12", "note": "[Compound-70, N-(2-hydroxy-4-methyl-6-quinolyl)-2-morpholino-5-sulfamoyl-benzamide]", "IC50": "< 200"}, {"smiles": "Cc1cc(O)nc2ccc(NC(=O)c3cc(S(=O)(=O)N(C)C)ccc3N3CCCC3)cc12", "note": "[Compound-72, 5-(dimethylsulfamoyl)-N-(2-hydroxy-4-methyl-6-quinolyl)-2-pyrrolidin-1-yl-benzamide]", "IC50": "< 200"}, {"smiles": "Cc1cc(O)nc2ccc(NC(=O)c3cc(S(=O)(=O)N(C)C)ccc3N3CCOCC3)cc12", "note": "[Compound-73, 5-(dimethylsulfamoyl)-N-(2-hydroxy-4-methyl-6-quinolyl)-2-morpholino-benzamide]", "IC50": "< 200"}, {"smiles": "Cc1cc(O)nc2ccc(NC(=O)c3cc(S(=O)(=O)N4CCOCC4)ccc3N3CCCC3)cc12", "note": "[Compound-74, N-(2-hydroxy-4-methyl-6-quinolyl)-5-morpholinosulfonyl-2-pyrrolidin-1-yl-benzamide]", "IC50": "< 200"}, {"smiles": "Cc1cc(O)nc2ccc(NS(=O)(=O)c3cc([N+](=O)[O-])ccc3N3CCOCC3)cc12", "note": "[Compound-76, N-(2-hydroxy-4-methyl-6-quinolyl)-2-morpholino-5-nitro-benzenesulfonamide]", "IC50": "1000 to 10000"}, {"smiles": "Cc1cc(O)nc2ccc(NS(=O)(=O)c3cc(N)ccc3N3CCOCC3)cc12", "note": "[Compound-77, 5-amino-N-(2-hydroxy-4-methyl-6-quinolyl)-2-morpholino-benzenesulfonamide]", "IC50": "> 10000"}, {"smiles": "CN(C)S(=O)(=O)c1ccc(N2CCOCC2)c(C(=O)Nc2ccc3[nH]c(=O)cc(C(F)(F)F)c3c2)c1", "note": "[Compound-79, 5-(dimethylsulfamoyl)-2-morpholino-N-[2-oxo-4-(trifluoromethyl)-1H-quinolin-6-yl]benzamide]", "IC50": "1000 to 10000"}, {"smiles": "Cc1cc(O)nc2ccc(NS(=O)(=O)c3cc(S(N)(=O)=O)ccc3N3CCOCC3)cc12", "note": "[Compound-80, N3-(2-hydroxy-4-methyl-6-quinolyl)-4-morpholino-benzene-1,3-disulfonamide]", "IC50": "> 10000"}, {"smiles": "Cc1cc(O)nc2ccc(NC(=O)c3cc([N+](=O)[O-])ccc3N3CCCC3)cc12", "note": "[Compound-82, N-(2-hydroxy-4-methyl-6-quinolyl)-5-nitro-2-pyrrolidin-1-yl-benzamide]", "IC50": "< 200"}, {"smiles": "Cc1cc(O)nc2ccc(NC(=O)c3cc4c(ccn4CC4NCCO4)cc3N3CCCC3)cc12", "note": "(stereo not drawn) [Compound-84, N-(2-hydroxy-4-methyl-6-quinolyl)-1-(oxazolidin-2-ylmethyl)-5-pyrrolidin-1-yl-indole-6-carboxamide]", "IC50": "< 200"}, {"smiles": "Cc1cc(O)nc2ccc(NC(=O)c3cc4[nH]cc(CN(C)C)c4cc3N3CCCC3)cc12", "note": "[Compound-85, 3-(dimethylaminomethyl)-N-(2-hydroxy-4-methyl-6-quinolyl)-5-pyrrolidin-1-yl-1H-indole-6-carboxamide]", "IC50": "< 200"}, {"smiles": "Cc1cc(O)nc2ccc(NC(=O)c3cc4c(ccn4CC(N)=O)cc3N3CCCC3)cc12", "note": "[Compound-86, 1-(2-amino-2-oxo-ethyl)-N-(2-hydroxy-4-methyl-6-quinolyl)-5-pyrrolidin-1-yl-indole-6-carboxamide]", "IC50": "< 200"}, {"smiles": "Cc1cc(O)nc2ccc(NC(=O)c3cc(CN4CCOCC4)cnc3N3CCCC3)cc12", "note": "[Compound-87, N-(2-hydroxy-4-methyl-6-quinolyl)-5-(morpholinomethyl)-2-pyrrolidin-1-yl-pyridine-3-carboxamide]", "IC50": "< 200"}, {"smiles": "Cc1cc(O)nc2ccc(NC(=O)c3cc(CN4CCOCC4)cnc3N3CCC(F)C3)cc12", "note": "(stereo not drawn) [Compound-88, 2-(3-fluoropyrrolidin-1-yl)-N-(2-hydroxy-4-methyl-6-quinolyl)-5-(morpholinomethyl)pyridine-3-carboxamide]", "IC50": "< 200"}, {"smiles": "Cc1cc(O)nc2ccc(NC(=O)c3cc(CN4CCOCC4)cnc3N3CCC(O)C3)cc12", "note": "(stereo not drawn) [Compound-89, N-(2-hydroxy-4-methyl-6-quinolyl)-2-(3-hydroxypyrrolidin-1-yl)-5-(morpholinomethyl)pyridine-3-carboxamide]", "IC50": "< 200"}, {"smiles": "Cc1cc(O)nc2ccc(NC(=O)c3cc(CN4CCOCC4)cnc3N3CCOCC3)cc12", "note": "[Compound-90, N-(2-hydroxy-4-methyl-6-quinolyl)-2-morpholino-5-(morpholinomethyl)pyridine-3-carboxamide]", "IC50": "< 200"}, {"smiles": "O=C(Nc1ccc2nc(O)cc(Cl)c2c1)c1cc(CN2CCOCC2)cnc1N1CCOCC1", "note": "[Compound-91, N-(4-chloro-2-hydroxy-6-quinolyl)-2-morpholino-5-(morpholinomethyl)pyridine-3-carboxamide]", "IC50": "< 200"}, {"smiles": "Cc1cc(=O)nc2ccc(NC(=O)c3cc(CN4CCOCC4)cnc3N3CCCC3)cn12", "note": "[Compound-92, N-(4-methyl-2-oxo-pyrido[1,2-a]pyrimidin-7-yl)-5-(morpholinomethyl)-2-pyrrolidin-1-yl-pyridine-3-carboxamide]", "IC50": "> 10000"}, {"smiles": "Cc1cc(O)nc2ccc(NC(=O)c3cc(CN4CCOCC4)cnc3N3CCCC3)nc12", "note": "[Compound-93, N-(8-methyl-6-oxo-5H-1,5-naphthyridin-2-yl)-5-(morpholinomethyl)-2-pyrrolidin-1-yl-pyridine-3-carboxamide]", "IC50": "1000 to 10000"}]}]}
